ChEMBL document CHEMBL5291721, “A preclinical secondary pharmacology resource illuminates target-adverse drug reaction associations of marketed drugs” (Nat Commun, 2023)

Legend:
[1] = target: T1, Muscarinic acetylcholine receptor M2 (Homo sapiens, UniProt P08172)
T1 sequence (P08172 whole entry): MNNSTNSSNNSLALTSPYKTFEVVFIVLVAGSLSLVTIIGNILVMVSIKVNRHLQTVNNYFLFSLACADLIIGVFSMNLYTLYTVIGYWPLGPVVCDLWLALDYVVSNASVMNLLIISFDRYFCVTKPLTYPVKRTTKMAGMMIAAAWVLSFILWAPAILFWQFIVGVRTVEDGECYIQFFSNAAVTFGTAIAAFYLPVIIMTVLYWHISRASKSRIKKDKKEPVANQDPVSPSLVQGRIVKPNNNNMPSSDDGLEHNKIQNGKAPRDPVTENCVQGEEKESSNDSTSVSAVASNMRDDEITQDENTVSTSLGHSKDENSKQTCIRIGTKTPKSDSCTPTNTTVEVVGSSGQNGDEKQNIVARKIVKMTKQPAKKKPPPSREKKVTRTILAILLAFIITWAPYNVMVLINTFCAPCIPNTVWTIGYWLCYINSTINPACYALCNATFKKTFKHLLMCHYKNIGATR

[2] = target: T2, Alpha-2A adrenergic receptor (Homo sapiens, UniProt P08913)
T2 sequence (P08913 whole entry): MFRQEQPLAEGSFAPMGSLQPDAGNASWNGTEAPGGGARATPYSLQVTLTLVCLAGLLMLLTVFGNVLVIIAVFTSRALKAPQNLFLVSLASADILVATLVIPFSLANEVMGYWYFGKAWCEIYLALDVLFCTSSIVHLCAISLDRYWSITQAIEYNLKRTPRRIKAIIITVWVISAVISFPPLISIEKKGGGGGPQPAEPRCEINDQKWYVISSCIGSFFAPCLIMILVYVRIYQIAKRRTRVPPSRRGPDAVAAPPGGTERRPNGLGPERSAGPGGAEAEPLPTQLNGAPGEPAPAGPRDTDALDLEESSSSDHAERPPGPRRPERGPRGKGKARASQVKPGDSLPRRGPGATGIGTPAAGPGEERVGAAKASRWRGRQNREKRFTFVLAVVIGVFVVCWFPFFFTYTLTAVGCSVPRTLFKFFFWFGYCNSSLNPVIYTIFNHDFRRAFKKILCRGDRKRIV

[3] = target: T3, Gamma-aminobutyric acid receptor subunit alpha-1/alpha-2/beta-2/gamma-2 (Homo sapiens, UniProt P14867+P18507+P47869+P47870); assay type: functional, cell-based
[4] = target: T3, Gamma-aminobutyric acid receptor subunit alpha-1/alpha-2/beta-2/gamma-2; assay type: functional, cell-based; remark: listed apart in the source
[5] = target: Sodium channel protein type 5 subunit alpha (Homo sapiens, UniProt Q14524); assay type: functional, cell-based
[6] = target: T4, Corticotropin-releasing factor receptor 1 (Homo sapiens, UniProt P34998)
T4 sequence (P34998 whole entry): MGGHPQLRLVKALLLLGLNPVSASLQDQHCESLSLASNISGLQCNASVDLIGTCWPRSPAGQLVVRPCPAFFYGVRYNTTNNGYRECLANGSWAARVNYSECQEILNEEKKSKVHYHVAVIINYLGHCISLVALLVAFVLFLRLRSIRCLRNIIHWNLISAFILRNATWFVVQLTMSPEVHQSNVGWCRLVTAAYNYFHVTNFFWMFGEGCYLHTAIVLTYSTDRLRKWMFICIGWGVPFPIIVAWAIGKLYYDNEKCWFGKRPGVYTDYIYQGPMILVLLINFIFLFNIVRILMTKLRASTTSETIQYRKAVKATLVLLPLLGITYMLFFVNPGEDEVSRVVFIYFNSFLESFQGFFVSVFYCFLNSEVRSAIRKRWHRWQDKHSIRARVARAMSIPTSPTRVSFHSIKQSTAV

[7] = target: Neurotensin receptor type 1 (Homo sapiens, UniProt P30989)
[8] = target: T5, Gastric inhibitory polypeptide receptor (Homo sapiens, UniProt P48546)
T5 sequence (P48546 whole entry): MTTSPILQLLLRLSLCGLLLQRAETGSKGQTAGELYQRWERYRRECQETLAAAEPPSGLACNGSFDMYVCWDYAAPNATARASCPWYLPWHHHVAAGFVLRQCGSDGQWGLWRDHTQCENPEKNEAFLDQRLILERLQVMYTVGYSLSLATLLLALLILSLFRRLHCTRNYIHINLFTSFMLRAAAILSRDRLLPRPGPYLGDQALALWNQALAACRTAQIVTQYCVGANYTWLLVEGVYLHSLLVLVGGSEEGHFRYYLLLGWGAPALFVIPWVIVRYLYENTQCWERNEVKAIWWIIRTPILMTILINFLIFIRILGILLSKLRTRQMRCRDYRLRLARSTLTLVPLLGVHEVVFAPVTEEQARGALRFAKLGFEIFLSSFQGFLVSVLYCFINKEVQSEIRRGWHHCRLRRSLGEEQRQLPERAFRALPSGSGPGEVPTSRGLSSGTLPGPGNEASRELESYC

[9] = target: Beta-3 adrenergic receptor (Homo sapiens, UniProt P13945)
Histamine H1 receptor = Histamine H1 receptor (Homo sapiens, UniProt P35367); assay type: functional, cell-based
Estrogen receptor beta = Estrogen receptor beta (Homo sapiens, UniProt Q92731)
[10] = target: T6, Alpha-1A adrenergic receptor (Homo sapiens, UniProt P35348)
T6 sequence (P35348 whole entry): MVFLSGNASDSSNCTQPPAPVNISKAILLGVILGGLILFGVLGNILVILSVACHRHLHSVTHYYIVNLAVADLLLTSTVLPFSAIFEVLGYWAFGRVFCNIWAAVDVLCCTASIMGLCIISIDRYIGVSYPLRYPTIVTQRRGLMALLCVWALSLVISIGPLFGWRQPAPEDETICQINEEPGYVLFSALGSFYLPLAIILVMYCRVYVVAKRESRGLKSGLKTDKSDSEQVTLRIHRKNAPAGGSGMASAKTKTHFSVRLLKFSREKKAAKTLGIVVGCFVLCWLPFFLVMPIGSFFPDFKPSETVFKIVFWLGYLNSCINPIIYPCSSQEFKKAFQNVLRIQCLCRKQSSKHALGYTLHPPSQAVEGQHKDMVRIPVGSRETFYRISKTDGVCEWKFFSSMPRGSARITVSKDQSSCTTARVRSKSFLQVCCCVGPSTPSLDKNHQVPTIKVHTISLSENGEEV
Further: assay procedure not described here.

Sequence of Beta-3 adrenergic receptor (P13945 whole entry): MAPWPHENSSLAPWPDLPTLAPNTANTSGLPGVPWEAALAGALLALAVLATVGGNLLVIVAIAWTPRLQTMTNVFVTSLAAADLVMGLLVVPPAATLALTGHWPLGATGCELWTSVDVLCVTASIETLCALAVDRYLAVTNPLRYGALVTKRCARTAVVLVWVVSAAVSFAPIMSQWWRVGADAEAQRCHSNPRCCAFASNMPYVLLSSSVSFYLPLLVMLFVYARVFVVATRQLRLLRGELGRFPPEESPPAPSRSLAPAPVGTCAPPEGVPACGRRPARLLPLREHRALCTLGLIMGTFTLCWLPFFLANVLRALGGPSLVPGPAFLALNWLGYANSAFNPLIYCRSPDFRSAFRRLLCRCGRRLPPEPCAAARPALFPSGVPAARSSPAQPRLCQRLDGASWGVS
Sequence of Sodium channel protein type 5 subunit alpha (Q14524 whole entry): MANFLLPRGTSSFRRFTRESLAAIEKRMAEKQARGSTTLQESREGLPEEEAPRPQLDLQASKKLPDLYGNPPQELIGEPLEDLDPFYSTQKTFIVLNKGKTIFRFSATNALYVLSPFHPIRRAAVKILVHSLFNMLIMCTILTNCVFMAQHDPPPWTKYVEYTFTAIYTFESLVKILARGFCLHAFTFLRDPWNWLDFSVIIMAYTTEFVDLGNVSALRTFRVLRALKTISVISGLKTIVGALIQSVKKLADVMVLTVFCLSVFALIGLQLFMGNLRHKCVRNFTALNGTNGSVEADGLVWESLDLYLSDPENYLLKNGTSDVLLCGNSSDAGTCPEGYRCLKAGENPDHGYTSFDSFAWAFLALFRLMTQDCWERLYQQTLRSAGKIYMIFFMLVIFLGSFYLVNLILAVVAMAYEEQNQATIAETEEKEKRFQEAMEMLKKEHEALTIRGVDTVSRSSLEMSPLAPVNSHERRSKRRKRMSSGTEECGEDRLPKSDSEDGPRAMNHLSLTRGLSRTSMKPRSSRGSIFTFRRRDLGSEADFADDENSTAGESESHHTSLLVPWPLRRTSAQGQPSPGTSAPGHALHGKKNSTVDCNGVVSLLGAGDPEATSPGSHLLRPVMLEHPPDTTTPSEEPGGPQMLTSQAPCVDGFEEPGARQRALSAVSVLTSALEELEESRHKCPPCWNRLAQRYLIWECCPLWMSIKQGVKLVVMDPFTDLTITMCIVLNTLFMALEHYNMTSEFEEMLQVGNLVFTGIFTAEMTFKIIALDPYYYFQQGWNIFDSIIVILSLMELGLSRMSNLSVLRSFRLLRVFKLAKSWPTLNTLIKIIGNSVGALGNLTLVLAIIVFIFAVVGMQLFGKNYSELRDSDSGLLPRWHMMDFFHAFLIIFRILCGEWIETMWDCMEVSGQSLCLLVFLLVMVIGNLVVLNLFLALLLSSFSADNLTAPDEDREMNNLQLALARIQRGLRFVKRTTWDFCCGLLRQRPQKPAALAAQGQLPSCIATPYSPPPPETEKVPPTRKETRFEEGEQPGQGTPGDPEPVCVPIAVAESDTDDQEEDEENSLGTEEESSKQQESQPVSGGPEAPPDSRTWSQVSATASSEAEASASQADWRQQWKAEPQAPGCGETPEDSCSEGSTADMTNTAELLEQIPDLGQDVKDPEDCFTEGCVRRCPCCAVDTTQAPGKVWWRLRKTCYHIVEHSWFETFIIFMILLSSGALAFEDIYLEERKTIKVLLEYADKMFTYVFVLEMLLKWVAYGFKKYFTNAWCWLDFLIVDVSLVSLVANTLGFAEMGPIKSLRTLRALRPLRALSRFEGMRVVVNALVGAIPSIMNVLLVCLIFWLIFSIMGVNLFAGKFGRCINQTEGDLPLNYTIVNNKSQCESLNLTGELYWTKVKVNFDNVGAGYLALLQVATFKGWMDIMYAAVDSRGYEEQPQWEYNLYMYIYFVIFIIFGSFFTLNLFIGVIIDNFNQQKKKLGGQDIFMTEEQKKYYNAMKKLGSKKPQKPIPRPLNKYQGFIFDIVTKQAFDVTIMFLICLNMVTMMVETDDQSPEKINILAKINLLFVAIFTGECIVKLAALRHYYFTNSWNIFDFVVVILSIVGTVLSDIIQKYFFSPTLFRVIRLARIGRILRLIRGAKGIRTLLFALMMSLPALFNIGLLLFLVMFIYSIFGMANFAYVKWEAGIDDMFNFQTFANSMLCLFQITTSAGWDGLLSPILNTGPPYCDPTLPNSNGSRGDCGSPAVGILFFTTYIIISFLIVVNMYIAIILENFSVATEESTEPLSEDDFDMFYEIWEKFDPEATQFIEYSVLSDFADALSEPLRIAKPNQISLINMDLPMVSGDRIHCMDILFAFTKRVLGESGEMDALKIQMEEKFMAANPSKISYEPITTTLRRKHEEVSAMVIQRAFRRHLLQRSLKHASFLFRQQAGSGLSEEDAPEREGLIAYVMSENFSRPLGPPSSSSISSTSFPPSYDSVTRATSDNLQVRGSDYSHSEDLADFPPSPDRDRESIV
T3 sequence (P14867 whole entry): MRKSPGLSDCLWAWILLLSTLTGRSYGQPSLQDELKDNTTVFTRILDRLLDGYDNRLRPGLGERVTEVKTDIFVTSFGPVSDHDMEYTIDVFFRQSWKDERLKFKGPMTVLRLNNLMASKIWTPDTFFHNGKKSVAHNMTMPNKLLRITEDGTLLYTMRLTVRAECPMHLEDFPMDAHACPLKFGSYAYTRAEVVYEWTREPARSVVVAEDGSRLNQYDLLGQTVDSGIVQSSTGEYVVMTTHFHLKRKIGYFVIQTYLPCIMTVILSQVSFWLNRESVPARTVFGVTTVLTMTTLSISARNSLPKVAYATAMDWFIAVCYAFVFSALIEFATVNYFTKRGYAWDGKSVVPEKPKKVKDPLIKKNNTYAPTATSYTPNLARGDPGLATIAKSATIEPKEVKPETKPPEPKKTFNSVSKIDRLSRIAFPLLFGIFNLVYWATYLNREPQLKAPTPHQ
T3 sequence (P47870 whole entry): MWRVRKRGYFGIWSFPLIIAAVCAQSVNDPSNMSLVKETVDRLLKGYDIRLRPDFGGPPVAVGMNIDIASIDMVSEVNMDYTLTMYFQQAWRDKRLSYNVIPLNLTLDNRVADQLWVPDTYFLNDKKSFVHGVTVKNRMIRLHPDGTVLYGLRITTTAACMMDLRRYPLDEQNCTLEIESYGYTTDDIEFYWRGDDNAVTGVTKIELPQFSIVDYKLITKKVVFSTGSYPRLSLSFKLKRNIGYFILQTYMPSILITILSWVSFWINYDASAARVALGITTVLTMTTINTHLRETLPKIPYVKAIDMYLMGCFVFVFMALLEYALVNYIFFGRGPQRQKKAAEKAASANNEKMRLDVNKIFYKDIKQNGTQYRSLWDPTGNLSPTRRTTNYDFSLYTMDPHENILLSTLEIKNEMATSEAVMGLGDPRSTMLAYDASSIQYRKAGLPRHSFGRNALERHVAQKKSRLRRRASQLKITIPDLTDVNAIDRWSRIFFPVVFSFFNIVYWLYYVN
T3 sequence (P18507 whole entry): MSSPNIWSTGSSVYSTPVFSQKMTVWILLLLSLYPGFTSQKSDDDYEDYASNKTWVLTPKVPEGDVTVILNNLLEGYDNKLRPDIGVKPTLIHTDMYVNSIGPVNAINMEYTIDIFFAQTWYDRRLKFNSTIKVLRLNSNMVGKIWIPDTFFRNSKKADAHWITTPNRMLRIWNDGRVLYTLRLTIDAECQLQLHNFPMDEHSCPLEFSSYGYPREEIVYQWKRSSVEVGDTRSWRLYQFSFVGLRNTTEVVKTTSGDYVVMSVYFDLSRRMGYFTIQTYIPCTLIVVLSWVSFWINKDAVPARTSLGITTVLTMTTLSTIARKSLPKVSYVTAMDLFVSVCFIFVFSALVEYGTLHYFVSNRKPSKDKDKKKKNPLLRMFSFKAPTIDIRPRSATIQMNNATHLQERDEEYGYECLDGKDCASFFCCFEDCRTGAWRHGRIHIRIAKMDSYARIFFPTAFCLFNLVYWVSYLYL
T3 sequence (P47869 whole entry): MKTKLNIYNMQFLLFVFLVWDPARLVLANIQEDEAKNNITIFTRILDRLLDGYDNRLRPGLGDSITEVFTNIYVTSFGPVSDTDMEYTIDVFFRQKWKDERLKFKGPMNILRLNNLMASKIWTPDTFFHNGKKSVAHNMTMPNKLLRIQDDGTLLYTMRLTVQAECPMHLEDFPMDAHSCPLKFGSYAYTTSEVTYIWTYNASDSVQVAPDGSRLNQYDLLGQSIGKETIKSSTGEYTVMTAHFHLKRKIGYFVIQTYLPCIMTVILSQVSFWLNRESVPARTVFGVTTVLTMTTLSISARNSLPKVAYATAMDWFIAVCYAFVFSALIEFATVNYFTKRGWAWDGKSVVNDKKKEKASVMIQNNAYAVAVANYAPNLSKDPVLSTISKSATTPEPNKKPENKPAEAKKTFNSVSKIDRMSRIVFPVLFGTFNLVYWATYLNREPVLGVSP
Sequence of Estrogen receptor beta (Q92731 whole entry): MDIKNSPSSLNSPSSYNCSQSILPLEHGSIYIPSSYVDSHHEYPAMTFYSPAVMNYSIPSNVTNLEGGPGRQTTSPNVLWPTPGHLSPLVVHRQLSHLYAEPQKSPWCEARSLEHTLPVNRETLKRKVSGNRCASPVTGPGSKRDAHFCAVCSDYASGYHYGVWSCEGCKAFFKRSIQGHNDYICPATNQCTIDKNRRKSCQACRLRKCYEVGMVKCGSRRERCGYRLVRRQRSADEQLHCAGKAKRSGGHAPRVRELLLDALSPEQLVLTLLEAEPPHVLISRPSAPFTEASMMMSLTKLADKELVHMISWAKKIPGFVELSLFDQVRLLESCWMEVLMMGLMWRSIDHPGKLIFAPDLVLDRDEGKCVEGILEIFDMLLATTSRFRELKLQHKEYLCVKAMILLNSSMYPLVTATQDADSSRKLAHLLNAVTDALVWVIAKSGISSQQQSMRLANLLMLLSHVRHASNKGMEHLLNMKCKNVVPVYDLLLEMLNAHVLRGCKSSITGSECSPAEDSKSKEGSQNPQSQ

SMILES | AC50 [2] [µM] | AC50 [3] [µM] | AC50 [4] [µM] | AC50 [6] [µM] | AC50 [7] [µM] | AC50 [8] [µM] | further results
C[N+]12CCC(CC1)C(OC(=O)C(O)(c1ccccc1)c1ccccc1)C2 (stereo unspecified) |  |  |  |  |  |  | AC50 [1]: 0.0032 µM
Cc1cc(=O)n(-c2ccccc2)n1C [ANTIPYRINE] | > 10 |  |  |  |  |  | 
NS(=O)(=O)c1cc2c(cc1Cl)N=C(CSCc1ccccc1)NS2(=O)=O [BENZTHIAZIDE] | 2.48 |  |  |  |  |  | 
CO/N=C(\C(=O)N[C@@H]1C(=O)N2C(C(=O)O)=C(CSc3nc(=O)c(=O)[nH]n3C)CS[C@H]12)c1csc(N)n1 [CEFTRIAXONE] |  | > 30 | > 30 |  |  |  | AC50 [5]: > 50 µM
COc1cc(N)c(Cl)cc1C(=O)NC1CCN(CCCOc2ccc(F)cc2)CC1OC (stereo unspecified) [CISAPRIDE] |  |  |  | > 30 | > 30 | > 30 | AC50 [1]: > 10 µM; AC50 [9]: > 30 µM; AC50 [5]: > 50 µM
CC(CN(C)C)C(C)(O)Cc1ccc(Cl)cc1 (stereo unspecified) [CLOBUTINOL] |  |  |  |  |  |  | AC50 (Histamine H1 receptor): > 30 µM
CCOC(=O)C(C)(C)Oc1ccc(Cl)cc1 [CLOFIBRATE] |  |  |  | > 30 | > 30 | > 30 | AC50 (Estrogen receptor beta): > 30 µM; AC50 [1]: > 10 µM; AC50 [9]: > 30 µM
CCCCOc1ccc(C(=O)CCN2CCCCC2)cc1 [DYCLONINE] | > 10 |  |  | > 30 | > 30 | > 30 | AC50 [10]: > 10 µM; AC50 (Estrogen receptor beta): > 30 µM; AC50 [1]: 2.81 µM; AC50 [9]: > 30 µM; AC50 (Histamine H1 receptor): > 30 µM
CC(C)NC[C@H](O)COc1ccc(CC(N)=O)cc1 [ESATENOLOL] | > 10 |  |  | > 30 | > 30 | > 30 | AC50 [10]: > 10 µM
NNC(=O)c1ccncc1 [ISONIAZID] | > 10 |  |  | > 30 | > 30 | > 30 | AC50 [10]: > 10 µM; AC50 (Estrogen receptor beta): > 30 µM; AC50 [9]: > 30 µM
COc1ccc(CN2CCN(C(c3ccc(F)cc3)c3ccc(F)cc3)CC2)c(OC)c1OC [LOMERIZINE] |  |  |  |  |  |  | AC50 [5]: 16 µM
O=C1Nc2ccc(Cl)cc2C(c2ccccc2Cl)=NC1O (stereo unspecified) [LORAZEPAM] | > 10 |  |  | > 30 | > 30 | > 30 | AC50 [10]: > 10 µM; AC50 (Estrogen receptor beta): > 30 µM; AC50 [1]: > 10 µM; AC50 [9]: > 30 µM
Cc1ccnc2c1NC(=O)c1cccnc1N2C1CC1 [NEVIRAPINE] | > 10 |  |  | > 30 | > 30 | > 30 | AC50 [10]: > 10 µM; AC50 (Estrogen receptor beta): > 30 µM; AC50 [1]: > 10 µM; AC50 [9]: > 30 µM
O=C(NCCO[N+](=O)[O-])c1cccnc1 [NICORANDIL] |  | > 30 | > 30 |  |  |  | AC50 (Histamine H1 receptor): > 30 µM
CO[C@H]1C[C@H](O[C@H]2CC[C@@]3(C)[C@H](CC[C@@H]4[C@@H]3CC[C@]3(C)[C@@H](C5=CC(=O)OC5)[C@@H](OC(C)=O)C[C@]43O)C2)O[C@@H](C)[C@@H]1O [OLEANDRIN] |  | > 30 | > 30 |  |  |  | 
O=c1[nH]c2ccccc2n1CCCN1CCN(C(c2ccccc2)c2ccccc2)CC1 [OXATOMIDE] |  | > 30 | > 30 |  |  |  | AC50 (Histamine H1 receptor): 0.69 µM
COc1cc2[nH]c(C)c(CCN3CCN(c4ccccc4)CC3)c2cc1OC [OXYPERTINE] |  | > 30 | > 30 |  |  |  | AC50 (Histamine H1 receptor): 0.645 µM
Fc1ccc([C@@H]2CCNC[C@H]2COc2ccc3c(c2)OCO3)cc1 [PAROXETINE] |  |  |  | > 30 | > 30 | > 30 | AC50 [9]: > 30 µM; AC50 [5]: 25.4 µM
c1ccc(C2(N3CCCCC3)CCCCC2)cc1 [PHENCYCLIDINE] |  | > 30 | > 30 |  |  |  | 
COc1cc(C(=O)OCc2cccc(COC(=O)c3cc(OC)c(OC)c(OC)c3)n2)cc(OC)c1OC [PIROZADIL] |  | > 30 | > 30 |  |  |  | AC50 (Histamine H1 receptor): > 30 µM
CCC(=O)O[C@](Cc1ccccc1)(c1ccccc1)[C@H](C)CN(C)C [PROPOXYPHENE] | > 10 |  |  | > 30 | > 30 | > 30 | AC50 [10]: > 10 µM; AC50 (Estrogen receptor beta): > 30 µM; AC50 [1]: > 10 µM; AC50 [9]: > 30 µM
CCc1nc(N)nc(N)c1-c1ccc(Cl)cc1 [PYRIMETHAMINE] | > 10 |  |  |  |  |  | 
O=c1c(O)c(-c2ccc(O)c(O)c2)oc2cc(O)cc(O)c12 [QUERCETIN] | > 10 |  |  | > 30 | > 30 | > 30 | AC50 (Estrogen receptor beta): > 30 µM; AC50 [1]: > 10 µM
CCN1CCCC1CNC(=O)c1cc(S(=O)(=O)CC)ccc1OC (stereo unspecified) [SULTOPRIDE] |  | > 30 | > 30 |  |  |  | AC50 (Histamine H1 receptor): > 30 µM
C=CCN1CCc2nc(N)sc2CC1 [TALIPEXOLE] | 0.98 |  |  |  |  |  | 
CCOC(=O)[C@@H](N)Cc1ccc(-c2cc(O[C@H](c3ccc(Cl)cc3-n3ccc(C)n3)C(F)(F)F)nc(N)n2)cc1 [TELOTRISTAT ETHYL] |  | > 30 | > 30 |  |  |  | AC50 [5]: > 1 µM
CCCCCCCC(=O)CC[C@@H]1[C@@H](C/C=C\CCCC(=O)OC(C)C)[C@@H](O)C[C@H]1O [UNOPROSTONE ISOPROPYL] |  |  |  |  |  |  | AC50 [5]: 27 µM
